Test results: ChEMBL document CHEMBL1201862, “PubChem BioAssay data set” (2004)
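Method: 48-hour compound exposure of cells in 96-well plates, five concentrations, linear interpolation of endpoints. GI50 is the concentration that inhibits growth by half.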 The source made the active and inactive calls. Rule as the data show it: active = GI50 up to about 1.1 µM and inactive = higher.

Legend:
Assay in all cases: DTP human tumour cell line panel, 48 h
DMS-114 = test system: DMS-114
DU-145 = test system: DU-145
HCT-15 = test system: HCT-15
K562 = test system: K562
KM12 = test system: KM12
M14 = test system: M14
MCF7 = test system: MCF7
Malme-3M = test system: Malme-3M
NCI-H522 = test system: NCI-H522
NCI/ADR-RES = test system: NCI/ADR-RES
OVCAR-3 = test system: OVCAR-3
OVCAR-5 = test system: OVCAR-5
OVCAR-8 = test system: OVCAR-8
RXF 393 = test system: RXF 393
SF-295 = test system: SF-295
SNB-19 = test system: SNB-19
SR = test system: SR
TK-10 = test system: TK-10
UACC-257 = test system: UACC-257
A498 = test system: A498

## COc1cc(/C=C/c2ccc(C)cc2)cc(OC)c1OC
DMS-114
  GI50: 5.9 µM (inactive)
DU-145
  GI50: 3.01 µM (inactive)
HCT-15
  GI50: 4.08 µM
K562
  GI50: 3.1 µM (inactive)
KM12
  GI50: 3.66 µM (inactive)
M14
  GI50: 3.56 µM (inactive)
MCF7
  GI50: 3.46 µM (inactive)
Malme-3M
  GI50: 4.35 µM (inactive)
NCI-H522
  GI50: 2.25 µM (inactive)
NCI/ADR-RES
  GI50: 2.07 µM (inactive)
OVCAR-3
  GI50: 2.48 µM (inactive)
OVCAR-5
  GI50: 12.7 µM (inactive)
OVCAR-8
  GI50: 4.43 µM (inactive)
RXF 393
  GI50: 4.42 µM (inactive)
SF-295
  GI50: 2.54 µM (inactive)
SNB-19
  GI50: 4.21 µM (inactive)
SR
  GI50: 2.52 µM (inactive)
TK-10
  GI50: 7.69 µM (inactive)
UACC-257
  GI50: 6.97 µM (inactive)

## O=C(/C=C/c1c(O)ccc2ccccc12)c1ccccc1
A498
  GI50: > 100 µM (inactive)
DMS-114
  GI50: > 100 µM (inactive)
HCT-15
  GI50: > 100 µM
K562
  GI50: 58.5 µM (inactive)
KM12
  GI50: > 100 µM (inactive)
M14
  GI50: > 100 µM (inactive)
Malme-3M
  GI50: > 100 µM (inactive)
NCI-H522
  GI50: > 100 µM (inactive)
OVCAR-3
  GI50: > 100 µM (inactive)
OVCAR-5
  GI50: > 100 µM (inactive)
OVCAR-8
  GI50: > 100 µM (inactive)
RXF 393
  GI50: > 100 µM (inactive)
SF-295
  GI50: > 100 µM (inactive)
SNB-19
  GI50: > 100 µM (inactive)
SR
  GI50: > 100 µM (inactive)
TK-10
  GI50: > 100 µM (inactive)
UACC-257
  GI50: > 100 µM (inactive)

## C/C(=N\NC(=N)N)C(CN(C)C)C(c1ccccc1)c1c(O)c2ccccc2oc1=O (configuration not stated)
A498
  GI50: > 100 µM (inactive)
DMS-114
  GI50: > 100 µM (inactive)
DU-145
  GI50: > 100 µM (inactive)
HCT-15
  GI50: > 100 µM
K562
  GI50: > 100 µM (inactive)
KM12
  GI50: > 100 µM (inactive)
M14
  GI50: > 100 µM (inactive)
MCF7
  GI50: > 100 µM (inactive)
Malme-3M
  GI50: > 100 µM (inactive)
NCI-H522
  GI50: > 100 µM (inactive)
NCI/ADR-RES
  GI50: > 100 µM (inactive)
OVCAR-3
  GI50: > 100 µM (inactive)
OVCAR-5
  GI50: > 100 µM (inactive)
OVCAR-8
  GI50: > 100 µM (inactive)
SF-295
  GI50: > 100 µM (inactive)
SNB-19
  GI50: > 100 µM (inactive)
SR
  GI50: > 100 µM (inactive)
TK-10
  GI50: > 100 µM (inactive)
UACC-257
  GI50: > 100 µM (inactive)

## O=C(O)CCC(=O)N1C/C(=C\c2ccccc2)C(=O)/C(=C/c2ccccc2)C1
A498
  GI50: 13.9 µM (inactive)
DMS-114
  GI50: 2.18 µM (inactive)
HCT-15
  GI50: 2.06 µM
K562
  GI50: 1.19 µM (inactive)
KM12
  GI50: 1.82 µM (inactive)
M14
  GI50: 2.32 µM (inactive)
Malme-3M
  GI50: 2.33 µM (inactive)
NCI-H522
  GI50: 1.07 µM (active)
OVCAR-3
  GI50: 2.41 µM (inactive)
OVCAR-5
  GI50: 15 µM (inactive)
OVCAR-8
  GI50: 3.09 µM (inactive)
RXF 393
  GI50: 3.67 µM (inactive)
SF-295
  GI50: 2.44 µM (inactive)
SNB-19
  GI50: 3.16 µM (inactive)
SR
  GI50: 0.59 µM (active)
TK-10
  GI50: 9.1 µM (inactive)
UACC-257
  GI50: 2.29 µM (inactive)

## CCCC(=O)OC[n+]1ccc2c(C)c3[nH]c4ccccc4c3c(C)c2c1
A498
  GI50: 1.34 µM (inactive)
DMS-114
  GI50: 0.641 µM (active)
HCT-15
  GI50: 0.274 µM
K562
  GI50: 0.466 µM (active)
KM12
  GI50: 0.377 µM (active)
M14
  GI50: 1.12 µM (inactive)
Malme-3M
  GI50: 1.33 µM (inactive)
NCI-H522
  GI50: 0.832 µM (active)
OVCAR-3
  GI50: 1.2 µM (inactive)
OVCAR-5
  GI50: 1.04 µM (active)
OVCAR-8
  GI50: 0.394 µM (active)
RXF 393
  GI50: 0.067 µM (active)
SF-295
  GI50: 0.43 µM (active)
SNB-19
  GI50: 0.935 µM (active)
SR
  GI50: 0.0681 µM (active)
TK-10
  GI50: 1.71 µM (inactive)
UACC-257
  GI50: 1.35 µM (inactive)

## C[N+]1(C)C/C(=C\c2ccncc2)C(=O)/C(=C/c2ccncc2)C1
A498
  GI50: > 100 µM (inactive)
DMS-114
  GI50: > 100 µM (inactive)
HCT-15
  GI50: > 100 µM
KM12
  GI50: > 100 µM (inactive)
M14
  GI50: > 100 µM (inactive)
Malme-3M
  GI50: > 100 µM (inactive)
NCI-H522
  GI50: 19.6 µM (inactive)
OVCAR-3
  GI50: > 100 µM (inactive)
OVCAR-5
  GI50: > 100 µM (inactive)
OVCAR-8
  GI50: > 100 µM (inactive)
RXF 393
  GI50: > 100 µM (inactive)
SF-295
  GI50: > 100 µM (inactive)
SNB-19
  GI50: > 100 µM (inactive)
SR
  GI50: > 100 µM (inactive)
TK-10
  GI50: > 100 µM (inactive)
UACC-257
  GI50: > 100 µM (inactive)

## CC(=O)Nc1ccc(/C=c2\sc3nnc(-c4cccnc4)n3c2=O)cc1
A498
  GI50: 75.2 µM (inactive)
DMS-114
  GI50: 17.9 µM (inactive)
HCT-15
  GI50: 17.6 µM
K562
  GI50: 22.4 µM (inactive)
KM12
  GI50: 16.8 µM (inactive)
M14
  GI50: 18.7 µM (inactive)
Malme-3M
  GI50: 19.1 µM (inactive)
NCI-H522
  GI50: 16.1 µM (inactive)
OVCAR-3
  GI50: 17.8 µM (inactive)
OVCAR-5
  GI50: 27.5 µM (inactive)
OVCAR-8
  GI50: 17.6 µM (inactive)
RXF 393
  GI50: 22.3 µM (inactive)
SF-295
  GI50: 36.4 µM (inactive)
SNB-19
  GI50: 24.2 µM (inactive)
SR
  GI50: 17.3 µM (inactive)
TK-10
  GI50: 21.6 µM (inactive)
UACC-257
  GI50: 21.8 µM (inactive)

## Cc1cc2cc(Cl)ccc2nc1C(=O)c1ccccc1
DMS-114
  GI50: > 100 µM (inactive)
HCT-15
  GI50: > 100 µM
K562
  GI50: > 100 µM (inactive)
KM12
  GI50: > 100 µM (inactive)
M14
  GI50: > 100 µM (inactive)
Malme-3M
  GI50: > 100 µM (inactive)
NCI-H522
  GI50: > 100 µM (inactive)
OVCAR-3
  GI50: > 100 µM (inactive)
OVCAR-5
  GI50: > 100 µM (inactive)
OVCAR-8
  GI50: > 100 µM (inactive)
RXF 393
  GI50: 22.5 µM (inactive)
SF-295
  GI50: 27.8 µM (inactive)
SNB-19
  GI50: > 100 µM (inactive)
SR
  GI50: > 100 µM (inactive)
TK-10
  GI50: > 100 µM (inactive)
UACC-257
  GI50: 32.4 µM (inactive)

## COc1ccc(C2=Nc3ccccc3NC(=O)C2)cc1
A498
  GI50: 45.2 µM (inactive)
DMS-114
  GI50: 20.7 µM (inactive)
HCT-15
  GI50: 51.9 µM
K562
  GI50: > 100 µM (inactive)
KM12
  GI50: > 100 µM (inactive)
M14
  GI50: > 100 µM (inactive)
Malme-3M
  GI50: 92 µM (inactive)
NCI-H522
  GI50: 38.9 µM (inactive)
OVCAR-3
  GI50: 64 µM (inactive)
OVCAR-5
  GI50: > 100 µM (inactive)
OVCAR-8
  GI50: 40.5 µM (inactive)
RXF 393
  GI50: 22.3 µM (inactive)
SF-295
  GI50: 23.1 µM (inactive)
SNB-19
  GI50: 28.2 µM (inactive)
SR
  GI50: > 100 µM (inactive)
TK-10
  GI50: 27.9 µM (inactive)
UACC-257
  GI50: > 100 µM (inactive)

## Cc1cc2c(c(N)c1C)C(=O)c1ccccc1C2=O
A498
  GI50: 19.7 µM (inactive)
DMS-114
  GI50: 32.1 µM (inactive)
HCT-15
  GI50: 45.8 µM
K562
  GI50: > 100 µM (inactive)
KM12
  GI50: 11.1 µM (inactive)
M14
  GI50: 29.2 µM (inactive)
Malme-3M
  GI50: 42.3 µM (inactive)
NCI-H522
  GI50: 21.7 µM (inactive)
OVCAR-5
  GI50: > 100 µM (inactive)
OVCAR-8
  GI50: 20 µM (inactive)
RXF 393
  GI50: 29 µM (inactive)
SF-295
  GI50: 27.4 µM (inactive)
SNB-19
  GI50: 27.9 µM (inactive)
SR
  GI50: > 100 µM (inactive)
TK-10
  GI50: 37.5 µM (inactive)
UACC-257
  GI50: 87.1 µM (inactive)

## COc1cc(C2C(Cl)C(=O)N2NC(=O)Cc2ccccc2)cc(Br)c1O (configuration not stated)
DMS-114
  GI50: 45 µM (inactive)
HCT-15
  GI50: 51.8 µM
K562
  GI50: > 100 µM (inactive)
KM12
  GI50: > 100 µM (inactive)
M14
  GI50: > 100 µM (inactive)
Malme-3M
  GI50: > 100 µM (inactive)
NCI-H522
  GI50: 56 µM (inactive)
OVCAR-3
  GI50: 61 µM (inactive)
OVCAR-5
  GI50: > 100 µM (inactive)
OVCAR-8
  GI50: > 100 µM (inactive)
RXF 393
  GI50: 92.3 µM (inactive)
SF-295
  GI50: > 100 µM (inactive)
SNB-19
  GI50: > 100 µM (inactive)
SR
  GI50: 56.6 µM (inactive)
TK-10
  GI50: > 100 µM (inactive)
UACC-257
  GI50: > 100 µM (inactive)
